Results on one compound are retold here after patent US20080300231A1, “Antibacterial amide macrocycles VI” (priority 2005, published 2008).

The test concerns the target S. aureus 133 Translation. Kind of test: S. aureus in vitro transcription-translation assay (firefly luciferase, S30 extract). The test is classed as biochemical. Particulars: 50% inhibition of the translation of firefly luciferase. The source says:
In Vitro Transcription-Translation with S. aureus Extracts
Construction of an S. aureus luciferase Reporter Plasmid
In order to construct a reporter plasmid which can be used in an in vitro transcription-translation assay from S. aureus the plasmid pBESTluc (Promega Corporation, USA) is used. The E. coli tac promoter present in this plasmid in front of the firefly luciferase is replaced with the capA1 promoter with appropriate Shine-Dalgarno sequence from S. aureus. The primers CAPFor 5′-CGGCCAAGCTTACTC-[…] […]-3′ and CAPRev 5′-[…]-3′ are used for this. The primer CAPFor contains the capA1 promoter, the ribosome binding site and the 5′ region of the luciferase gene. After PCR using pBESTluc as template it is possible to isolate a PCR product which contains the firefly luciferase gene with the fused capA1 promoter. This is, after restriction with ClaI and HindIII, ligated into the vector pBESTluc which has likewise been digested with ClaI and HindIII. The resulting plasmid p1a can be replicated in E. coli and can be used as template in the S. aureus in vitro transcription-translation test.
Preparation of S30 Extracts from S. aureus
Six litres of BHI medium are inoculated with a 250 ml overnight culture of an S. aureus strain and allowed to grow at 37° C. until the OD600 nm is 2-4. The cells are harvested by centrifugation and washed in 500 ml of cold buffer A (10 mM Tris acetate, pH 8.0, 14 mM magnesium acetate, 1 mM DTT, 1 M KCl). After renewed centrifugation, the cells are washed in 250 ml of cold buffer A with 50 mM KCl, and the resulting pellets are frozen at −20° C. for 60 min. The pellets are thawed on ice in 30 to 60 min and taken up to a total volume of 99 ml in buffer B (10 mM Tris acetate, pH 8.0, 20 mM magnesium acetate, 1 mM DTT, 50 mM KCl). 1.5 ml portions of lysostaphin (0.8 mg/ml) in buffer B are introduced into 3 precooled centrifuge cups and mixed with 33 ml of the cell suspension each. The samples are incubated at 37° C., shaking occasionally, for 45 to 60 min, before 150 μl of a 0.5 M DTT solution are added. The lysed cells are centrifuged at 30 000×g and 4° C. for 30 min. The cell pellet is taken up in buffer B and then centrifuged again under the same conditions, and the collected supernatants are combined. The supernatants are centrifuged again under the same conditions, and 0.25 volumes of buffer C (670 mM Tris acetate, pH 8.0, 20 mM magnesium acetate, 7 mM Na3 phosphoenolpyruvate, 7 mM DTT, 5.5 mM ATP, 70 μM amino acids (complete from Promega), 75 μg of pyruvate kinase (Sigma, Germany))/ml are added to the upper ⅔ of the supernatant. The samples are incubated at 37° C. for 30 min. The supernatants are dialysed against 2 l of dialysis buffer (10 mM Tris acetate, pH 8.0, 14 mM magnesium acetate, 1 mM DTT, 60 mM potassium acetate) in a dialysis tube with a 3500 Da cut-off with one buffer change at 4° C. overnight. The dialysate is concentrated to a protein concentration of about 10 mg/ml by covering the dialysis tube with cold PEG 8000 powder (Sigma, Germany) at 4° C. The S30 extracts can be stored in aliquots at −70° C.
Determination of the IC50 in the S. aureus In Vitro Transcription-Translation Assay
The inhibition of protein biosynthesis of the compounds can be shown in an in vitro transcription-translation assay. The assay is based on the cell-free transcription and translation of firefly luciferase using the reporter plasmid p1a as template and cell-free S30 extracts obtained from S. aureus. The activity of the resulting luciferase can be detected by luminescence measurement.
The amount of S30 extract or plasmid p1a to be employed must be tested anew for each preparation in order to ensure an optimal concentration in the assay. 3 μl of the substance to be tested, dissolved in 5% DMSO, are provided in an MTP. Then […] of a suitably concentrated plasmid solution p1a are added. […]

For `NC[C@H](O)C[C@@H]1NC(=O)[C@@H](N)Cc2cc(ccc2O)-c2ccc(O)c(c2)C[C@@H](C(=O)O)NC1=O` [Biphenomycin B, biphenomycin B, reference compound], half-maximal inhibition (IC50) required 1500 nM.

The term IC50 denotes the concentration at which inhibition is half-maximal. Low readings indicate inhibition by little substance, high ones a need for much substance.
